The text below walks through data of US9428773B2, “Methods of producing acetoin and 2,3-butanediol using photosynthetic microorganisms” (The Regents of the University of California, priority 2012, dated 2016).

Data set [1] deals with S. elongatus.
Protocol: (§1) Unless otherwise specified, S. elongatus strains were cultured in BG-11 medium (45) with the addition of 50 mM NaHCO3. Cells were grown at 30° C. with rotary shaking (100 rpm) and light (55 μE s^−1 m^−2) provided by four 86 cm 20 W fluorescent tubes 5 cm above the cell cultures. Cell growth was monitored by measuring OD730.
(§2) To evaluate acetoin and 23BD toxicity, we tested the growth of S. elongatus over 72 h in the presence of 23BD or acetoin.
The test system of data set [2] is S. elongatus. The data set is described as follows: growth of S. elongatus over 72 h in the presence of 23BD or acetoin (toxicity).
Protocol: as §1, §2
Data set [3] relates to S. elongatus. Conditions: cited from earlier work.

As to `CC(O)C(C)O` (centres unmarked) [23BD, 2,3-butanediol], in the data set on S. elongatus [1], the “growth of S. elongatus in the presence of 10 g/L 23BD” value was “barely inhibited”, the “growth of S. elongatus in the presence of 30 g/L 23BD” value is “still exhibited growth” and the “toxicity in S. elongatus (in words)” value is “low toxicity”.

For `CC(=O)C(C)O` (centres unmarked) [acetoin], the “decrease of growth of S. elongatus” value in the data set with S. elongatus [2] (0.2 g/L acetoin, 72 h) is “approximately 50%”. The “concentration at which growth of S. elongatus stopped” value with S. elongatus [2] (72 h) was 1000 µg/mL. In the data set on S. elongatus [2] (FIG. 2A), the “concentration above which toxic in S. elongatus” value is “above 0.1 g/L”.

Regarding `CC(C)CO` [isobutanol], in the data set with S. elongatus [3], the “concentration that prevents growth of S. elongatus” value is 1000 µg/mL.

As for `CC(C)C=O` [isobutyraldehyde], in the data set on S. elongatus [3], the “concentration that prevents growth of S. elongatus” value is 1000 µg/mL.
